Laboratory results published in ChEMBL document CHEMBL4011590, “Structure-activity relationship studies on 3,5-dinitrophenyl tetrazoles as antitubercular agents” (Eur J Med Chem, 2017).
pIC50: −log10 of the molar value. Values after ≈ are worked out from the molar mass of the structure shown.

Experiments:
Klebsiella pneumoniae [1] = experiment: Antibacterial activity against extended spectrum beta-lactamase producing Klebsiella pneumoniae HK14368/08 after 24 hrs by broth microdilution method; format: functional; conditions: HK14368/08, 24 h
Mycobacterium kansasii [2] = experiment: Antimycobacterial activity against Mycobacterium kansasii isolate 6509/96 after 21 days by micromethod; format: functional; conditions: isolate 6509/96, 504 h
Klebsiella pneumoniae [3] = experiment: Antibacterial activity against extended spectrum beta-lactamase producing Klebsiella pneumoniae HK14368/08 after 48 hrs by broth microdilution method; format: functional; conditions: HK14368/08, 48 h
Mycobacterium avium [4] = experiment: Antimycobacterial activity against Mycobacterium avium CNCTC My 330/80 after 14 days by micromethod; format: functional; conditions: CNCTC My 330/80, 336 h
Staphylococcus aureus [5] = experiment: Antibacterial activity against Staphylococcus aureus ATCC 6538 after 48 hrs by broth microdilution method; format: functional; conditions: ATCC 6538, 48 h
[6] = tested on: Staphylococcus epidermidis; experiment: Antibacterial activity against Staphylococcus epidermidis HK6966/08 after 24 hrs by broth microdilution method; format: functional; conditions: HK6966/08, 24 h
Nakaseomyces glabratus [7] = experiment: Antifungal activity against Candida glabrata 20/I after 24 hrs by broth microdilution method; format: functional
[8] = tested on: Trichophyton mentagrophytes; experiment: Antifungal activity against Trichophyton mentagrophytes 445 after 120 hrs by broth microdilution method; format: functional; conditions: Trichophyton mentagrophytes, 445, 120 h
Staphylococcus aureus [9] = experiment: Antibacterial activity against Staphylococcus aureus ATCC 6538 after 24 hrs by broth microdilution method; format: functional; conditions: ATCC 6538, 24 h
Candida tropicalis [10] = experiment: Antifungal activity against Candida tropicalis 156 after 24 hrs by broth microdilution method; format: functional; conditions: Candida tropicalis, 156, 24 h
Lichtheimia corymbifera [11] = experiment: Antifungal activity against Absidia corymbifera 272 after 24 hrs by broth microdilution method; format: functional; conditions: Lichtheimia corymbifera, 272, 24 h
[12] = tested on: Mycobacterium tuberculosis; experiment: Antimycobacterial activity against Mycobacterium tuberculosis H37Rv CNCTC My 331/88 after 21 days by micromethod; format: functional; conditions: H37Rv CNCTC My 331/88, 504 h
Escherichia coli [13] = experiment: Antibacterial activity against Escherichia coli ATCC 8739 after 48 hrs by broth microdilution method; format: functional; conditions: ATCC 8739, 48 h
Mycobacterium kansasii [14] = experiment: Antimycobacterial activity against Mycobacterium kansasii CNCTC My 235/80 after 7 days by micromethod; format: functional; conditions: CNCTC My 235/80, 168 h
Pichia kudriavzevii [15] = experiment: Antifungal activity against Candida krusei E28 after 48 hrs by broth microdilution method; format: functional; conditions: E28, 48 h
Staphylococcus aureus [16] = experiment: Antibacterial activity against methicillin-resistant Staphylococcus aureus HK5996/08 after 24 hrs by broth microdilution method; format: functional; conditions: HK5996/08, 24 h
Aspergillus fumigatus [17] = experiment: Antifungal activity against Aspergillus fumigatus 231 after 48 hrs by broth microdilution method; format: functional; conditions: Aspergillus fumigatus, 231, 48 h
Enterococcus sp. [18] = experiment: Antibacterial activity against Enterococcus sp. HK14365/08 after 24 hrs by broth microdilution method; format: functional; conditions: HK14365/08, 24 h
Candida albicans [19] = experiment: Antifungal activity against Candida albicans ATCC 44859 after 48 hrs by broth microdilution method; format: functional; conditions: ATCC 44859, 48 h
[20] = tested on: Trichophyton mentagrophytes; experiment: Antifungal activity against Trichophyton mentagrophytes 445 after 72 hrs by broth microdilution method; format: functional; conditions: Trichophyton mentagrophytes, 445, 72 h
Mycobacterium kansasii [21] = experiment: Antimycobacterial activity against Mycobacterium kansasii CNCTC My 235/80 after 21 days by micromethod; format: functional; conditions: CNCTC My 235/80, 504 h
[22] = tested on: Staphylococcus epidermidis; experiment: Antibacterial activity against Staphylococcus epidermidis HK6966/08 after 48 hrs by broth microdilution method; format: functional; conditions: HK6966/08, 48 h
CHO-K1 = experiment: Cytotoxicity against CHOK1 cells after 24 hrs by MTT assay; format: cell-based; conditions: Cricetulus griseus, CHO-K1, 24 h
Staphylococcus aureus [23] = experiment: Antibacterial activity against methicillin-resistant Staphylococcus aureus HK5996/08 after 48 hrs by broth microdilution method; format: functional; conditions: HK5996/08, 48 h
Candida tropicalis [24] = experiment: Antifungal activity against Candida tropicalis 156 after 48 hrs by broth microdilution method; format: functional; conditions: Candida tropicalis, 156, 48 h
Klebsiella pneumoniae [25] = experiment: Antibacterial activity against Klebsiella pneumoniae HK11750/08 after 48 hrs by broth microdilution method; format: functional; conditions: HK11750/08, 48 h
Klebsiella pneumoniae [26] = experiment: Antibacterial activity against Klebsiella pneumoniae HK11750/08 after 24 hrs by broth microdilution method; format: functional; conditions: HK11750/08, 24 h
Nakaseomyces glabratus [27] = experiment: Antifungal activity against Candida glabrata 20/I after 48 hrs by broth microdilution method; format: functional
Pseudomonas aeruginosa [28] = experiment: Antibacterial activity against Pseudomonas aeruginosa ATCC 9027 after 48 hrs by broth microdilution method; format: functional; conditions: ATCC 9027, 48 h
Trichosporon asahii [29] = experiment: Antifungal activity against Trichosporon asahii 1188 after 24 hrs by broth microdilution method; format: functional; conditions: Trichosporon asahii, 1188, 24 h
Mycobacterium kansasii [30] = experiment: Antimycobacterial activity against Mycobacterium kansasii isolate 6509/96 after 7 days by micromethod; format: functional; conditions: isolate 6509/96, 168 h
[31] = tested on: Mycobacterium tuberculosis; experiment: Antimycobacterial activity against Mycobacterium tuberculosis H37Rv CNCTC My 331/88 after 14 days by micromethod; format: functional; conditions: H37Rv CNCTC My 331/88, 336 h
Pichia kudriavzevii [32] = experiment: Antifungal activity against Candida krusei E28 after 24 hrs by broth microdilution method; format: functional; conditions: E28, 24 h
Aspergillus fumigatus [33] = experiment: Antifungal activity against Aspergillus fumigatus 231 after 24 hrs by broth microdilution method; format: functional; conditions: Aspergillus fumigatus, 231, 24 h
Escherichia coli [34] = experiment: Antibacterial activity against Escherichia coli ATCC 8739 after 24 hrs by broth microdilution method; format: functional; conditions: ATCC 8739, 24 h
Trichosporon asahii [35] = experiment: Antifungal activity against Trichosporon asahii 1188 after 48 hrs by broth microdilution method; format: functional; conditions: Trichosporon asahii, 1188, 48 h
Mycobacterium avium [36] = experiment: Antimycobacterial activity against Mycobacterium avium CNCTC My 330/80 after 21 days by micromethod; format: functional; conditions: CNCTC My 330/80, 504 h
Candida albicans [37] = experiment: Antifungal activity against Candida albicans ATCC 44859 after 24 hrs by broth microdilution method; format: functional; conditions: ATCC 44859, 24 h
Mycobacterium kansasii [38] = experiment: Antimycobacterial activity against Mycobacterium kansasii isolate 6509/96 after 14 days by micromethod; format: functional; conditions: isolate 6509/96, 336 h
Lichtheimia corymbifera [39] = experiment: Antifungal activity against Absidia corymbifera 272 after 48 hrs by broth microdilution method; format: functional; conditions: Lichtheimia corymbifera, 272, 48 h
Mycobacterium kansasii [40] = experiment: Antimycobacterial activity against Mycobacterium kansasii CNCTC My 235/80 after 14 days by micromethod; format: functional; conditions: CNCTC My 235/80, 336 h
Pseudomonas aeruginosa [41] = experiment: Antibacterial activity against Pseudomonas aeruginosa ATCC 9027 after 24 hrs by broth microdilution method; format: functional; conditions: ATCC 9027, 24 h
Enterococcus sp. [42] = experiment: Antibacterial activity against Enterococcus sp. HK14365/08 after 48 hrs by broth microdilution method; format: functional; conditions: HK14365/08, 48 h

## COc1cccc(Cn2nnc(-c3cc([N+](=O)[O-])cc([N+](=O)[O-])c3)n2)c1
Klebsiella pneumoniae [1]
  MIC: > 500 µM
Mycobacterium kansasii [2]
  MIC99: 2 µM (≈ 0.713 µg/mL)
Klebsiella pneumoniae [3]
  MIC: > 500 µM
Mycobacterium avium [4]
  MIC99: 4 µM (≈ 1.43 µg/mL)
Staphylococcus aureus [5]
  MIC: > 500 µM
[6]
  MIC: > 500 µM
Nakaseomyces glabratus [7]
  MIC: > 500 µM
[8]
  MIC: > 500 µM
Staphylococcus aureus [9]
  MIC: > 500 µM
Candida tropicalis [10]
  MIC: > 500 µM
Lichtheimia corymbifera [11]
  MIC: > 500 µM
[12]
  MIC99: 1 µM (≈ 0.356 µg/mL)
Escherichia coli [13]
  MIC: > 500 µM
Mycobacterium kansasii [14]
  MIC99: 1 µM (≈ 0.356 µg/mL)
Pichia kudriavzevii [15]
  MIC: > 500 µM
Staphylococcus aureus [16]
  MIC: > 500 µM
Aspergillus fumigatus [17]
  MIC: > 500 µM
Enterococcus sp. [18]
  MIC: > 500 µM
Candida albicans [19]
  MIC: > 500 µM
[20]
  MIC: > 500 µM
Mycobacterium kansasii [21]
  MIC99: 4 µM (≈ 1.43 µg/mL)
[22]
  MIC: > 500 µM
CHO-K1
  pIC50: < 4.00
Staphylococcus aureus [23]
  MIC: > 500 µM
Candida tropicalis [24]
  MIC: > 500 µM
Klebsiella pneumoniae [25]
  MIC: > 500 µM
Klebsiella pneumoniae [26]
  MIC: > 500 µM
Nakaseomyces glabratus [27]
  MIC: > 500 µM
Pseudomonas aeruginosa [28]
  MIC: > 500 µM
Trichosporon asahii [29]
  MIC: > 500 µM
Mycobacterium kansasii [30]
  MIC99: 1 µM (≈ 0.356 µg/mL)
[31]
  MIC99: 1 µM (≈ 0.356 µg/mL)
Pichia kudriavzevii [32]
  MIC: > 500 µM
Aspergillus fumigatus [33]
  MIC: > 500 µM
Escherichia coli [34]
  MIC: > 500 µM
Trichosporon asahii [35]
  MIC: > 500 µM
Mycobacterium avium [36]
  MIC99: 8 µM (≈ 2.85 µg/mL)
Candida albicans [37]
  MIC: > 500 µM
Mycobacterium kansasii [38]
  MIC99: 2 µM (≈ 0.713 µg/mL)
Lichtheimia corymbifera [39]
  MIC: > 500 µM
Mycobacterium kansasii [40]
  MIC99: 2 µM (≈ 0.713 µg/mL)
Pseudomonas aeruginosa [41]
  MIC: > 500 µM
Enterococcus sp. [42]
  MIC: > 500 µM
